For six compounds, MIC results are on record in patent US20180318311A1, “TRICYCLIC 2-QUINOLINONES AS ANTIBACTERIALS” (priority 2017, published 2018).

Holding throughout (format): cell-based
For test [1], the system named is S. aureus ATCC 49951 (NB01006). Kind of test: MIC by broth microdilution, S. aureus NB01006. The conditions noted are these: Staphylococcus aureus, ATCC49951, CAMHB, 35° C., 20 hours, read-out: Antibacterial activity (MIC) NB01006. The gist of the method: (§1)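 CLSI broth microdilution in CAMHB, inoculum ~5×10^5 CFU/mL, two-fold compound dilutions at 1% final DMSO. Plates incubated 20 h at 35°C in ambient air; MIC (μg/mL) is the lowest concentration preventing visible growth, confirmed by OD600.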
For orientation: Dilution methods test growth across graded concentrations, often in twofold steps.

Test [2] has as its system P. aeruginosa NB52019, wild-type PAO1 strain. Kind of test: MIC by broth microdilution, P. aeruginosa NB52019. The conditions noted are these: Pseudomonas aeruginosa, CAMHB, 35° C., 20 hours, read-out: Antibacterial activity (MIC) NB52019. The gist of the method: as §1
Test [3] deals with S. aureus NB01006-AVR005, gyrA (S84L), grlA (580F) and grlB (E471K). Kind of test: microbe, parasite or virus in culture. The note with it: Staphylococcus aureus, 20 h, read-out: Antibacterial activity (MIC) NB01006-AVR005. The gist of the method:
as §1

The subject of test [4] is E. coli ATCC 25922 (NB27001). Kind of test: MIC by broth microdilution, E. coli NB27001. The conditions noted are these: Escherichia coli, ATCC25922, CAMHB, 35° C., 20 hours, read-out: Antibacterial activity (MIC) NB27001. The gist of the method: as §1
For test [5], the system named is S. aureus NB01080 fluoroquinolone-resistant clinical isolate. As to the kind of experiment: MIC by broth microdilution, S. aureus NB01080. The conditions noted are these: Staphylococcus aureus, CAMHB, 35° C., 20 hours, read-out: Antibacterial activity (MIC) NB01080. The gist of the method:
as §1

The subject of test [6] is S. pneumoniae ATCC 25922 (NB07001). As to the kind of experiment: MIC by broth microdilution, S. pneumoniae NB07001. The conditions noted are these: Streptococcus pneumoniae, ATCC25922, 20 h, read-out: Antibacterial activity (MIC) NB07001. The gist of the method: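 MIC in μg/mL taken as the lowest concentration with no visible growth, checked by 600 nm reading after 20 h at 35°C, ambient air. Strains tested per CLSI microdilution in cation-adjusted Mueller-Hinton broth at about 5×10^5 CFU/mL, compounds as two-fold series, 1% DMSO final.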

Test [7] concerns E. faecalis ATCC 29212 (NB04001). As to the kind of experiment: MIC by broth microdilution, E. faecalis NB04001. The note with it: Enterococcus faecalis, ATCC29212, CAMHB, 35° C., 20 hours, read-out: Antibacterial activity (MIC) NB04001. In outline: as §1

≈ marks a conversion by molar mass, not a printed value.

In the case of `C[C@H]1COc2c(N3CCN4CC(F)(F)C[C@H]4C3)c(F)cc3cc(C(=O)O)c(=O)n1c23` [Example 1.72, (S)-10-((S)-7,7-difluorohexahydropyrrolo [1,2-a]pyrazin-2(1H)-yl)-9-fluoro-3-methyl-5-oxo-2,3-dihydro-5H-[1,4]oxazino[2,3,4-ij]quinoline-6-carboxylic acid], the MIC in test [1] is 1 to 32 µg/mL (≈ 2.36 to 75.6 µM); in test [2] it was over 32 µg/mL; in test [3] it was over 32 µg/mL; in test [4] it was over 32 µg/mL; in test [5] it was over 32 µg/mL; in test [6], over 32 µg/mL. For the same compound, the MIC in test [7] is over 32 µg/mL.

For `C[C@H]1COc2c(N3CCN4C[C@@H](F)C[C@H]4C3)c(F)cc3cc(C(=O)O)c(=O)n1c23` [Example 1.73, (S)-9-fluoro-10-((7S,8aS)-7-fluorohexahydropyrrolo[1,2-a]pyrazin-2(1H)-yl)-3-methyl-5-oxo-2,3-dihydro-5H-[1,4]oxazino[2,3,4-ij]quinoline-6-carboxylic acid], the MIC in test [1] is 1 to 32 µg/mL (≈ 2.47 to 78.9 µM); in test [2], over 32 µg/mL; in test [3] it was over 32 µg/mL; in test [4], 1 to 32 µg/mL (≈ 2.47 to 78.9 µM); in test [5], over 32 µg/mL; in test [6], over 32 µg/mL. In addition, the MIC in test [7] was over 32 µg/mL.

For the compound `C[C@H]1COc2c(N3C[C@H](F)[C@@H](C4(N)CC4)C3)c(F)cc3cc(C(=O)O)c(=O)n1c23` [Example 1.74, (S)-10-((3R,4R)-3-(1-aminocyclopropyl)-4-fluoropyrrolidin-1-yl)-9-fluoro-3-methyl-5-oxo-2,3-dihydro-5H-[1,4]oxazino[2,3,4-ij]quinoline-6-carboxylic acid], the MIC in test [1] was under 1 µg/mL; in test [2], over 32 µg/mL; in test [3] it was 1 to 32 µg/mL (≈ 2.47 to 78.9 µM); in test [4] it was 1 to 32 µg/mL (≈ 2.47 to 78.9 µM); in test [5], 1 to 32 µg/mL (≈ 2.47 to 78.9 µM); in test [6], under 1 µg/mL. Also, the MIC in test [7] was 1 to 32 µg/mL (≈ 2.47 to 78.9 µM).

Take `C[C@H]1COc2c(N3CC[C@@H](C4(N)CCCC4)C3)c(F)cc3cc(C(=O)O)c(=O)n1c23` [Example 1.75, (S)-10-((R)-3-(1-aminocyclopentyl)pyrrolidin-1-yl)-9-fluoro-3-methyl-5-oxo-2,3-dihydro-5H-[1,4]oxazino[2,3,4-ij]quinoline-6-carboxylic acid]: the MIC in test [1] is under 1 µg/mL; in test [2], over 32 µg/mL; in test [3], 1 to 32 µg/mL (≈ 2.41 to 77 µM); in test [4] it was 1 to 32 µg/mL (≈ 2.41 to 77 µM); in test [5], 1 to 32 µg/mL (≈ 2.41 to 77 µM); in test [6], under 1 µg/mL. Further, the MIC in test [7] lay within 1 to 32 µg/mL (≈ 2.41 to 77 µM).

For the compound `C[C@H]1COc2c(N3CC(CC4(N)CC4)C3)c(F)cc3cc(C(=O)O)c(=O)n1c23` [Example 1.76, (S)-10-(3-((1-aminocyclopropyl)methyl)azetidin-1-yl)-9-fluoro-3-methyl-5-oxo-2,3-dihydro-5H-[1,4]oxazino[2,3,4-ij]quinoline-6-carboxylic acid], the MIC in test [1], in test [2], in test [3], in test [4], in test [5] and in test [6] was over 32 µg/mL in each case. Further, the MIC in test [7] is over 32 µg/mL.

As to `C[C@H]1COc2c(N3C[C@@H](CO)[C@@H](CO)C3)c(F)cc3cc(C(=O)O)c(=O)n1c23` [Example 1.79, (S)-10-((3R,4S)-3,4-bis(hydroxymethyl)pyrrolidin-1-yl)-9-fluoro-3-methyl-5-oxo-2,3-dihydro-5H-[1,4]oxazino[2,3,4-ij]quinoline-6-carboxylic acid], the MIC in test [1] is 1 to 32 µg/mL (≈ 2.55 to 81.6 µM); in test [2], over 32 µg/mL; in test [3], over 32 µg/mL; in test [4] it was over 32 µg/mL; in test [5], over 32 µg/mL; in test [6] it was over 32 µg/mL. In addition, the MIC in test [7] was over 32 µg/mL.
